Measurements published in US8987195B2 (priority 2012, dated 2015).
Read-outs that look alike come from different tables or passages of the source.

Key:
[1] = tested on: HCV genotype 1b replicon; assay: HCV replicon assay, genotype 1b replicon EC50; assay type: cell-based, Hepatitis C virus; conditions: read-out: EC50 [gt-1b]
Method in brief: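 Assay format: compound titration on stable replicon cells, no G418 during treatment, 24 to 48 hours. Lysates were assayed for replicon RNA (hybridization/protection or TaqMan) or luciferase; EC50 fitted to four parameters against DMSO.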

[2] = target: HCV NS3/4A protease genotype 1b (Hepatitis C virus genotype 1b, UniProt P26663); assay: HCV NS3/4A protease time-resolved fluorescence (TRF) assay, Ki against genotype 1b; assay type: biochemical
Method in brief: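 Ki values come from IC50 fits corrected for substrate concentration and KM. The time-resolved fluorescence protease reaction used 25 nM peptide substrate, 2.5 h, room temperature, pH 7.5 HEPES buffer, after 30 min enzyme–inhibitor preincubation.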

[3] = Hepatitis C virus, genotype 1b replicon
[4] = IC50 [gt-1b] (nM), NS3/4A genotype 1b, enzyme 0.2 nM
[5] = Hepatitis C virus, genotype 1b replicon, K+ salt
[6] = IC50 [gt-1b] (nM), NS3/4A genotype 1b, enzyme 0.2 nM, K+ salt

Sequence of HCV NS3/4A protease genotype 1b (P26663 1027-1657): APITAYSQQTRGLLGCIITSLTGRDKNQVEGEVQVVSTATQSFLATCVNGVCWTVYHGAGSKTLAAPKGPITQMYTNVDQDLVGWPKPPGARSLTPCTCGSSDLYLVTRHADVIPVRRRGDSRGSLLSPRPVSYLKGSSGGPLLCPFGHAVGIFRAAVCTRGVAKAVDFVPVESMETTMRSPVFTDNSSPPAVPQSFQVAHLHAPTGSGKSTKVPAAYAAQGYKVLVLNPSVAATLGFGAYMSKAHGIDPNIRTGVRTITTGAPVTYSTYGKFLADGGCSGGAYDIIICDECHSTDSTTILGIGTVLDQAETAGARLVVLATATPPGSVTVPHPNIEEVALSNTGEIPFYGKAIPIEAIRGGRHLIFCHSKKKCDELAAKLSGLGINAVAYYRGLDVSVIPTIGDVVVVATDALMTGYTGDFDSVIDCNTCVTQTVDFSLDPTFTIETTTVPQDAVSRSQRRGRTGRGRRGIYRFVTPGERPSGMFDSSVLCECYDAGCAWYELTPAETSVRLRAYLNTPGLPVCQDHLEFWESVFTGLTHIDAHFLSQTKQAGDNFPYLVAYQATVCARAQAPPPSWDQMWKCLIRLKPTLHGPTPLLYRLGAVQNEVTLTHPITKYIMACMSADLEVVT
Sequence of HCV NS3/4A protease genotype 1b (P26663 1658-1711): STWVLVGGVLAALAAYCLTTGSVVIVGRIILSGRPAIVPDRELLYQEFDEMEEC

SMILES	EC50 [1, 3]	IC50 [2, 4]	other results
COc1ccc2nc(C(F)F)c3c(c2c1)CC[C@]1(C[C@H]2C(=O)N[C@]4(C(=O)NS(=O)(=O)C5(C)CC5)C[C@H]4/C=C\CCCCC[C@H](NC(=O)OCC(C)(C)C)C(=O)N2C1)O3 [Example 441, 2,2-dimethylpropyl [(2R,6S,12Z,13aS,14aR,16aS)-5′-(difluoromethyl)-9′-methoxy-14a-{[(1-methylcyclopropyl)sulfonyl]carbamoyl}-5,16-dioxo-1,1′,2′,5,6,7,8,9,10,11,13a,14,14a,15,16,16a-hexadecahydrospiro[cyclopropa[e]pyrrolo[1,2-a][1,4]diazacyclopentadecine-2,3′-pyrano[2,3-c]quinolin]-6-yl]carbamate]	–	–	EC50 ([1]; Hepatitis C virus, HCV replicon, genotype 1b, K+ salt): 1.53 nM; IC50 ([2]; IC50 [gt-1b], NS3/4A protease TRF assay, genotype 1b enzyme 0.2 nM, K+ salt): 0.016 nM
CCc1nc2ccc(OC)cc2c2c1O[C@]1(CC2)C[C@H]2C(=O)N[C@]3(C(=O)NS(=O)(=O)C4(C)CC4)C[C@H]3/C=C\CCCCC[C@H](NC(=O)OCC(C)(C)C)C(=O)N2C1 [Example 338, 2,2-dimethylpropyl [(2R,6S,12Z,13aS,14aR,16aS)-5′-ethyl-9′-methoxy-14a-{[(1-methylcyclopropyl)sulfonyl]carbamoyl}-5,16-dioxo-1,1′,2′,5,6,7,8,9,10,11,13a,14,14a,15,16,16a-hexadecahydrospiro[cyclopropa[e]pyrrolo[1,2-a][1,4]diazacyclopentadecine-2,3′-pyrano[2,3-c]quinolin]-6-yl]carbamate]	1.53 nM	0.009 nM	–
CCOC(=O)N[C@H]1CCCCC/C=C\[C@@H]2C[C@@]2(C(=O)NS(=O)(=O)C2(C)CC2)NC(=O)[C@@H]2C[C@]3(CCc4c(c(C5CC5)nc5cc(OC)ccc45)O3)CN2C1=O [Example 138, ethyl [(2R,6S,12Z,13aS,14aR,16aS)-5′-cyclopropyl-8′-methoxy-14a-{[(1-methylcyclopropyl)sulfonyl]carbamoyl}-5,16-dioxo-1,1′,2′,5,6,7,8,9,10,11,13a,14,14a,15,16,16a-hexadecahydrospiro[cyclopropa[e]pyrrolo[1,2-a][1,4]diazacyclopentadecine-2,3′-pyrano[2,3-c]quinolin]-6-yl]carbamate]	2.51 nM	0.043 nM	–
COc1ccc2nc(C)c3c(c2c1)CC[C@]1(C[C@H]2C(=O)N[C@]4(C(=O)NS(=O)(=O)C5(C)CC5)C[C@H]4CCCCCCC[C@H](NC(=O)OC(C)(C)C(F)(F)F)C(=O)N2C1)O3 [Example 35]	–	0.016 nM	EC50 ([1]; Hepatitis C virus, GETYPE1B|GT1B, genotype 1b replicon): 1.69 nM
Cc1nc2ccccc2c2c1O[C@]1(CC2)C[C@H]2C(=O)N[C@]3(C(=O)NS(=O)(=O)C4(C)CC4)C[C@H]3/C=C\CCCCC[C@H](NC(=O)OC3CCC(F)(F)C3)C(=O)N2C1 (stereo partly drawn) [Example 375, 3,3-difluorocyclopentyl [(2R,6S,12Z,13aS,14aR,16aS)-5′-methyl-14a-{[(1-methylcyclopropyl)sulfonyl]carbamoyl}-5,16-dioxo-1,1′,2′,5,6,7,8,9,10,11,13a,14,14a,15,16,16a-hexadecahydrospiro[cyclopropa[e]pyrrolo[1,2-a][1,4]diazacyclopentadecine-2,3′-pyrano[2,3-c]quinolin]-6-yl]carbamate]	–	–	EC50 ([1]; HCV replicon, genotype 1b): 6.38 nM; IC50 ([2]; IC50 [gt-1b], NS3/4A protease TRF assay, genotype 1b enzyme 0.2 nM): 0.018 nM
COc1ccc2nc(C(C)C)c3c(c2c1)C(F)(F)C[C@]1(C[C@H]2C(=O)N[C@]4(C(=O)NS(=O)(=O)C5(C)CC5)C[C@H]4/C=C\CCCCC[C@H](NC(=O)OC(C)(C)CCS(=O)(=O)C(C)C)C(=O)N2C1)O3 [Example 281, 2-methyl-4-(propan-2-ylsulfonyl)butan-2-yl [(2S,6S,12Z,13aS,14aR,16aS)-1′,1′-difluoro-9′-methoxy-14a-{[(1-methylcyclopropyl)sulfonyl]carbamoyl}-5,16-dioxo-5′-(propan-2-yl)-1,1′,2′,5,6,7,8,9,10,11,13a,14,14a,15,16,16a-hexadecahydrospiro[cyclopropa[e]pyrrolo[1,2-a][1,4]diazacyclopentadecine-2,3′-pyrano[2,3-c]quinolin]-6-yl]carbamate]	10.8 nM	0.06 nM	–
COc1ccc2nc(C)c3c(c2c1)CC[C@]1(C[C@H]2C(=O)N[C@]4(C(=O)NS(=O)(=O)C5(C)CC5)C[C@H]4/C=C\CCCCC[C@H](NC(=O)OC(C)(C)C(F)(F)F)C(=O)N2C1)O3 [Example 254, 1,1,1-trifluoro-2-methylpropan-2-yl [(2R,6S,12Z,13aS,14aR,16aS)-9′-methoxy-5′-methyl-14a-{[(1-methylcyclopropyl)sulfonyl]carbamoyl}-5,16-dioxo-1,1′,2′,5,6,7,8,9,10,11,13a,14,14a,15,16,16a-hexadecahydrospiro[cyclopropa[e]pyrrolo[1,2-a][1,4]diazacyclopentadecine-2,3′-pyrano[2,3-c]quinolin]-6-yl]carbamate]	–	–	EC50 [1, 5]: 1.58 nM; IC50 [2, 6]: 0.01 nM
Cc1nc2ccc(OC(F)F)cc2c2c1O[C@]1(CC2)C[C@H]2C(=O)N[C@]3(C(=O)NS(=O)(=O)C4(C)CC4)C[C@H]3/C=C\CCCCC[C@H](NC(=O)OC(C)(C)C)C(=O)N2C1 [Example 256, tert-butyl [(2R,6S,12Z,13aS,14aR,16aS)-9′-(difluoromethoxy)-5′-methyl-14a-{[(1-methylcyclopropyl)sulfonyl]carbamoyl}-5,16-dioxo-1,1′,2′,5,6,7,8,9,10,11,13a,14,14a,15,16,16a-hexadecahydrospiro[cyclopropa[e]pyrrolo[1,2-a][1,4]diazacyclopentadecine-2,3′-pyrano[2,3-c]quinolin]-6-yl]carbamate]	3.08 nM	0.005 nM	–
Cc1nc2c(C(F)(F)F)cccc2c2c1O[C@]1(CC2)C[C@H]2C(=O)N[C@]3(C(=O)NS(=O)(=O)C4(C)CC4)C[C@H]3/C=C\CCCCC[C@H](NC(=O)OCC(C)C)C(=O)N2C1 [Example 113, 2-methylpropyl [(2R,6S,12Z,13aS,14aR,16aS)-5′-methyl-14a-{[(1-methylcyclopropyl)sulfonyl]carbamoyl}-5,16-dioxo-7′-(trifluoromethyl)-1,1′,2′,5,6,7,8,9,10,11,13a,14,14a,15,16,16a-hexadecahydrospiro[cyclopropa[e]pyrrolo[1,2-a][1,4]diazacyclopentadecine-2,3′-pyrano[2,3-c]quinolin]-6-yl]carbamate]	3.95 nM	0.298 nM	–
COc1ccc2c3c(c(C4CC4)nc2c1)O[C@]1(CC3)C[C@H]2C(=O)N[C@]3(C(=O)NS(=O)(=O)C4(C)CC4)C[C@H]3/C=C\CCCCC[C@H](NC(=O)OC3CCCC3)C(=O)N2C1 [Example 134, cyclopentyl [(2R,6S,12Z,13aS,14aR,16aS)-5′-cyclopropyl-8′-methoxy-14a-{[(1-methylcyclopropyl)sulfonyl]carbamoyl}-5,16-dioxo-1,1′,2′,5,6,7,8,9,10,11,13a,14,14a,15,16,16a-hexadecahydrospiro[cyclopropa[e]pyrrolo[1,2-a][1,4]diazacyclopentadecine-2,3′-pyrano[2,3-c]quinolin]-6-yl]carbamate]	–	–	EC50 [1, 5]: 2.84 nM; IC50 [2, 6]: 0.014 nM
Cc1nc2ccc(F)cc2c2c1O[C@]1(CC2)C[C@H]2C(=O)N[C@]3(C(=O)NS(=O)(=O)C4(C)CC4)C[C@H]3/C=C\CCCCC[C@H](NC(=O)OC3CCCC3)C(=O)N2C1 [Example 219, cyclopentyl [(2R,6S,12Z,13aS,14aR,16aS)-9′-fluoro-5′-methyl-14a-{[(1-methylcyclopropyl)sulfonyl]carbamoyl}-5,16-dioxo-1,1′,2′,5,6,7,8,9,10,11,13a,14,14a,15,16,16a-hexadecahydrospiro[cyclopropa[e]pyrrolo[1,2-a][1,4]diazacyclopentadecine-2,3′-pyrano[2,3-c]quinolin]-6-yl]carbamate]	1.2 nM	0.004 nM	–
Cc1nc2ccc(Cl)cc2c2c1O[C@]1(CC2)C[C@H]2C(=O)N[C@]3(C(=O)NS(=O)(=O)C4(C)CC4)C[C@H]3/C=C\CCCCC[C@H](NC(=O)OCC3(C)CC3)C(=O)N2C1 [Example 41]	–	–	EC50 ([1]; Hepatitis C virus, GETYPE1B|GT1B, genotype 1b replicon, K+ salt): 16.2 nM; IC50 [2, 6]: 0.007 nM
CCc1nc2ccc(OC)cc2c2c1O[C@]1(CC2)C[C@H]2C(=O)N[C@]3(C(=O)NS(=O)(=O)C4(C)CC4)C[C@H]3/C=C\CCCCC[C@H](NC(=O)OCC(C)C)C(=O)N2C1 [Example 337, 2-methylpropyl [(2R,6S,12Z,13aS,14aR,16aS)-5′-ethyl-9′-methoxy-14a-{[(1-methylcyclopropyl)sulfonyl]carbamoyl}-5,16-dioxo-1,1′,2′,5,6,7,8,9,10,11,13a,14,14a,15,16,16a-hexadecahydrospiro[cyclopropa[e]pyrrolo[1,2-a][1,4]diazacyclopentadecine-2,3′-pyrano[2,3-c]quinolin]-6-yl]carbamate]	2.37 nM	0.009 nM	–
